This note sets out measurements from the supplement of paper PMC10307832.

Assay in all cases: relative viability (nuclei count vs DMSO), 5 days (fraction); higher = more cells survive
Compound in experiment [1]: C1=CC=C2C(=C1)C=CC(=C2SSC3=C(C=CC4=CC=CC=C43)O)O [IPA-3] + C[C@]1(O)C[C@@H](c2nc(-c3ccc4ccc(-c5ccccc5)nc4c3)c3c(N)nccn32)C1 [Linsitinib] (partner 1 µM)
The procedure, abridged: (§1)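 A single step with final 0.05% Triton X-100, 1% formaldehyde and 1 ug/ml Hoechst fixed the cells and stained nuclei 5 days after treatment. Lung cancer cell lines in 1536-well plates had been treated by pin tool the day after seeding with one drug alone or a fixed anchor-drug dose plus five library-drug doses (not always all listed) in √10 steps, and nuclei were counted on 4× images. Relative viability is the ratio of nuclei in treated wells to nuclei in vehicle wells, taken as the median of duplicate plates.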

Compound in experiment [2]: C1=CC=C2C(=C1)C=CC(=C2SSC3=C(C=CC4=CC=CC=C43)O)O [IPA-3] + C[C@@H](Oc1cc(-c2cnn(C3CCNCC3)c2)cnc1N)c1c(Cl)ccc(F)c1Cl [Crizotinib] (partner 1 µM)
The method, boiled down: as §1

Compound in experiment [3]: C1=CC=C2C(=C1)C=CC(=C2SSC3=C(C=CC4=CC=CC=C43)O)O [IPA-3] + O=C(c1cc(Cc2n[nH]c(=O)c3ccccc23)ccc1F)N1CCN(C(=O)C2CC2)CC1 [Olaparib] (partner 8 µM)
The procedure, abridged: as §1

Compound in experiment [4]: C1=CC=C2C(=C1)C=CC(=C2SSC3=C(C=CC4=CC=CC=C43)O)O [IPA-3] + Cc1nc(NC(=O)N2CCC[C@H]2C(N)=O)sc1-c1ccnc(C(C)(C)C(F)(F)F)c1 [Alpelisib] (partner 2 µM)
The procedure, abridged: as §1

For NCI-H2228, the relative viability in experiment [1] (first compound 0.2 µM) stood at 0.706; in experiment [1] (first compound 0.6325 µM), 0.857; in experiment [1] (first compound 2 µM), 0.642; in experiment [1] (first compound 6.325 µM), 0.715; in experiment [1] (first compound 20 µM), 0.887; in experiment [2] (first compound 0.2 µM), 0.437. Further, the relative viability was 0.383 in experiment [2] (first compound 0.6325 µM); 0.439 in experiment [2] (first compound 2 µM); 0.376 in experiment [2] (first compound 6.325 µM); 0.597 in experiment [2] (first compound 20 µM); 0.662 in experiment [3] (first compound 0.2 µM); 0.514 in experiment [3] (first compound 0.6325 µM). The relative viability in experiment [3] (first compound 2 µM) stood at 0.404; in experiment [3] (first compound 6.325 µM), 0.559; in experiment [3] (first compound 20 µM), 0.471; in experiment [4] (first compound 0.2 µM) it was 0.948; in experiment [4] (first compound 0.6325 µM) it was 0.785; in experiment [4] (first compound 2 µM), 0.884. For the same cell line, the relative viability was 0.68 in experiment [4] (first compound 6.325 µM) and 0.51 in experiment [4] (first compound 20 µM).

With NCI-H2347, the relative viability in experiment [1] (first compound 0.2 µM) came to 1.02; in experiment [1] (first compound 0.6325 µM) it was 0.903; in experiment [1] (first compound 2 µM), 0.879; in experiment [1] (first compound 6.325 µM), 0.947; in experiment [1] (first compound 20 µM) it was 0.972; in experiment [2] (first compound 0.2 µM) it was 0.834. The relative viability in experiment [2] (first compound 0.6325 µM) came out at 0.749; in experiment [2] (first compound 2 µM), 0.724; in experiment [2] (first compound 6.325 µM), 0.697; in experiment [2] (first compound 20 µM) it was 0.708; in experiment [3] (first compound 0.2 µM), 0.568; in experiment [3] (first compound 0.6325 µM) it was 0.486. Moreover, the relative viability in experiment [3] (first compound 2 µM) came out at 0.565; in experiment [3] (first compound 6.325 µM), 0.592; in experiment [3] (first compound 20 µM), 0.612; in experiment [4] (first compound 0.2 µM), 1.12; in experiment [4] (first compound 0.6325 µM), 0.941; in experiment [4] (first compound 2 µM) it was 0.928. The relative viability in experiment [4] (first compound 6.325 µM) was 1.08; in experiment [4] (first compound 20 µM), 1.01.

Consider NCI-H2405, for which the relative viability in experiment [1] (first compound 0.2 µM) was 0.953; in experiment [1] (first compound 0.6325 µM), 0.923; in experiment [1] (first compound 2 µM), 0.936; in experiment [1] (first compound 6.325 µM), 0.912; in experiment [1] (first compound 20 µM), 1.03; in experiment [2] (first compound 0.2 µM) it was 0.863. The relative viability in experiment [2] (first compound 0.6325 µM) turned out to be 0.865; in experiment [2] (first compound 2 µM) it was 0.856; in experiment [2] (first compound 6.325 µM), 0.841; in experiment [2] (first compound 20 µM), 0.878; in experiment [3] (first compound 0.2 µM), 0.994; in experiment [3] (first compound 0.6325 µM) it was 0.832. Moreover, the relative viability worked out at 0.939 in experiment [3] (first compound 2 µM); 0.865 in experiment [3] (first compound 6.325 µM); 0.9 in experiment [3] (first compound 20 µM); 0.815 in experiment [4] (first compound 0.2 µM); 0.771 in experiment [4] (first compound 0.6325 µM); 0.753 in experiment [4] (first compound 2 µM). In addition, the relative viability in experiment [4] (first compound 6.325 µM) was determined as 0.853; in experiment [4] (first compound 20 µM), 0.829.

For NCI-H3122, the relative viability is 1.05 in experiment [1] (first compound 0.2 µM); 1.01 in experiment [1] (first compound 0.6325 µM); 0.961 in experiment [1] (first compound 2 µM); 1.08 in experiment [1] (first compound 6.325 µM); 1.05 in experiment [1] (first compound 20 µM); 0.265 in experiment [2] (first compound 0.2 µM). In addition, the relative viability in experiment [2] (first compound 0.6325 µM) was found to be 0.283; in experiment [2] (first compound 2 µM), 0.324; in experiment [2] (first compound 6.325 µM), 0.269; in experiment [2] (first compound 20 µM) it was 0.273; in experiment [3] (first compound 0.2 µM) it was 0.655; in experiment [3] (first compound 0.6325 µM), 0.608. Further, the relative viability in experiment [3] (first compound 2 µM) is 0.57; in experiment [3] (first compound 6.325 µM), 0.644; in experiment [3] (first compound 20 µM) it was 0.588; in experiment [4] (first compound 0.2 µM) it was 0.797; in experiment [4] (first compound 0.6325 µM) it was 0.798; in experiment [4] (first compound 2 µM) it was 0.804. Besides, the results for the relative viability in experiment [4] (first compound 6.325 µM) and in experiment [4] (first compound 20 µM) were 0.856 and 0.776, respectively.

Consider PC-3 [JPC-3], for which the relative viability in experiment [1] (first compound 0.2 µM) was found to be 0.965; in experiment [1] (first compound 0.6325 µM), 0.904; in experiment [1] (first compound 2 µM), 0.977; in experiment [1] (first compound 6.325 µM) it was 0.994; in experiment [1] (first compound 20 µM), 0.922; in experiment [2] (first compound 0.2 µM), 1.04. Also, the relative viability in experiment [2] (first compound 0.6325 µM) was determined as 0.964; in experiment [2] (first compound 2 µM), 0.937; in experiment [2] (first compound 6.325 µM), 0.976; in experiment [2] (first compound 20 µM), 0.923; in experiment [3] (first compound 0.2 µM) it was 1.11; in experiment [3] (first compound 0.6325 µM), 1.08. For the same cell line, the relative viability in experiment [3] (first compound 2 µM) is 1.28; in experiment [3] (first compound 6.325 µM), 1.05; in experiment [3] (first compound 20 µM) it was 1.13; in experiment [4] (first compound 0.2 µM), 1.04; in experiment [4] (first compound 0.6325 µM) it was 1.05; in experiment [4] (first compound 2 µM) it was 1.04. Besides, the relative viability in experiment [4] (first compound 6.325 µM) was determined as 0.972; in experiment [4] (first compound 20 µM) it was 1.08.
